Experimental data published in ChEMBL document CHEMBL5518227, “Discovery of JNJ-1802, a First-in-Class Pan-Serotype Dengue Virus NS4B Inhibitor” (J Med Chem, 2024).

Tests used:
dengue virus type 1 = test: Antiviral activity against DENV-1 TC974#666 infected in african green monkey Vero cells incubated for 24 hrs measured after 3 days post infection by RT-PCR analysis; format: functional, organism-based; settings: Dengue virus, TC974#666, Vero; read-out: EC50
dengue virus type 2 = test: Antiviral activity against DENV-2 16681 expressing eGFP infected in african green monkey Vero cells incubated with cells for 24 hrs followed by viral infection measured after 3 days by laser microscopic analysis; format: functional, organism-based; settings: Dengue virus, 16681, Vero
[1] = Metabolic stability in human hepatocytes assessed as intrinsic clearance measured per million cells incubated upto 120 mins by LC-MS/MS analysis; format: ADME, cell-based, Hepatocyte; settings: read-out: CLH
[2] = Clearance in Sprague-Dawley rat at 2.5 mg/kg, iv measured after 24 hrs by LC-MS/MS analysis; format: ADME, organism-based; settings: in vivo
[3] = Volume of distribution at steady state in Sprague-Dawley rat at 2.5 mg/kg, iv measured after 24 hrs by LC-MS/MS analysis; format: ADME, organism-based; settings: in vivo, read-out: Vdss
[4] = Elimination half life in Sprague-Dawley rat at 2.5 mg/kg, iv measured after 24 hrs by LC-MS/MS analysis; format: ADME, organism-based; settings: in vivo, read-out: beta t1/2 (converted)
[5] = AUC in Sprague-Dawley rat at 10 mg/kg, po measured after 24 to 48 hrs by LC-MS/MS analysis; format: ADME, organism-based; settings: in vivo, time 24-48 hrs
[6] = Chromatographic hydrophobicity index, log D of the compound at pH 7.4 by LC/MS analysis; format: physicochemical; settings: buffer
[7] = Oral bioavailability in CD-1 mouse at 10 mg/kg measured upto 24 hrs by LC-MS/MS analysis; format: ADME, organism-based; settings: in vivo
[8] = Elimination half life in overnight fasted Beagle dog at 0.51 mg/kg, iv measured upto 24 hrs by LC-MS/MS analysis; format: ADME, organism-based, Canis lupus familiaris; settings: in vivo, read-out: beta t1/2 (converted)
[9] = Cmax in overnight fasted Beagle dog at 2.37 mg/kg, po measured upto 24 hrs by LC-MS/MS analysis; format: ADME, organism-based, Canis lupus familiaris; settings: in vivo
[10] = Oral bioavailability in overnight fasted Beagle dog at 2.37 mg/kg measured upto 24 hrs by LC-MS/MS analysis; format: ADME, organism-based, Canis lupus familiaris; settings: in vivo
[11] = Clearance in 8 hrs fasted cynomolgus monkey at 1 mg/kg, iv measured upto 24 hrs by LC-MS/MS analysis; format: ADME, organism-based, Macaca fascicularis; settings: in vivo
[12] = Clearance in 8 hrs fasted cynomolgus monkey assessed as liver blood flow at 1 mg/kg, iv measured upto 24 hrs by LC-MS/MS analysis; format: ADME, organism-based, Macaca fascicularis; settings: in vivo
[13] = AUC in 8 hrs fasted cynomolgus monkey assessed as liver blood flow at 3 mg/kg, po measured upto 24 hrs by LC-MS/MS analysis; format: ADME, organism-based, Macaca fascicularis; settings: in vivo
[14] = Distribution coefficient between 1-Octanol and aqueous phosphate buffer, logD of the compound at pH 7.4 by shake flask method; format: physicochemical; settings: 1-octanol/aqueous phosphate buffer
[15] = Plasma protein binding in human at 5 uM measured after 24 hrs by LC-MS/MS analysis; format: ADME, cell-free; settings: read-out: PPB (converted)
[16] = Mutagenicity in Salmonella typhimurium TA7001 in presence or absence of S9 fraction pretreated for 90 mins measured after 48 hrs in dark by AMES test; format: toxicity; settings: salmonella enterica subsp. enterica serovar typhimurium, s9, 49.5 h; time 2970 min
mouse P-gp [17] = test: Apparent permeability across apical to basolateral side in pig LLC-PK1 cells transfected with mouse P-gp at 1 uM measured upto 120 mins; format: ADME, cell-based, Sus scrofa
mouse P-gp [18] = test: Efflux ratio of permeability from basolateral to apical side over apical to basolateral side in pig LLC-PK1 cells transfected with mouse P-gp at 1 uM measured upto 120 mins; format: ADME, cell-based, Sus scrofa
[19] = Mutagenicity in Salmonella typhimurium TA98 in presence or absence of S9 fraction pretreated for 90 mins measured after 48 hrs in dark by AMES test; format: toxicity; settings: salmonella enterica subsp. enterica serovar typhimurium, s9, 49.5 h; time 2970 min
[20] = Mutagenicity in Salmonella typhimurium TA7002 in presence or absence of S9 fraction pretreated for 90 mins measured after 48 hrs in dark by AMES test; format: toxicity; settings: salmonella enterica subsp. enterica serovar typhimurium, s9, 49.5 h; time 2970 min
[21] = Mutagenicity in Salmonella typhimurium TA7004 in presence or absence of S9 fraction pretreated for 90 mins measured after 48 hrs in dark by AMES test; format: toxicity; settings: salmonella enterica subsp. enterica serovar typhimurium, s9, 49.5 h; time 2970 min
[22] = Mutagenicity in Salmonella typhimurium TA7006 in presence or absence of S9 fraction pretreated for 90 mins measured after 48 hrs in dark by AMES test; format: toxicity; settings: salmonella enterica subsp. enterica serovar typhimurium, s9, 49.5 h; time 2970 min
[23] = Cytotoxicity against african green monkey Vero cells by ATPlite cell viability luminescence assay; format: toxicity, cell-based; settings: chlorocebus sabaeus
Cytochrome P450 1A2 = molecular target: T1, Cytochrome P450 1A2 (Homo sapiens, UniProt P05177); test: Inhibition of human CYP1A2 preincubated for 5 mins followed by NADPH addition measured after 5 to 30 mins by LC-MS analysis; format: ADME
T1 sequence (P05177 whole entry): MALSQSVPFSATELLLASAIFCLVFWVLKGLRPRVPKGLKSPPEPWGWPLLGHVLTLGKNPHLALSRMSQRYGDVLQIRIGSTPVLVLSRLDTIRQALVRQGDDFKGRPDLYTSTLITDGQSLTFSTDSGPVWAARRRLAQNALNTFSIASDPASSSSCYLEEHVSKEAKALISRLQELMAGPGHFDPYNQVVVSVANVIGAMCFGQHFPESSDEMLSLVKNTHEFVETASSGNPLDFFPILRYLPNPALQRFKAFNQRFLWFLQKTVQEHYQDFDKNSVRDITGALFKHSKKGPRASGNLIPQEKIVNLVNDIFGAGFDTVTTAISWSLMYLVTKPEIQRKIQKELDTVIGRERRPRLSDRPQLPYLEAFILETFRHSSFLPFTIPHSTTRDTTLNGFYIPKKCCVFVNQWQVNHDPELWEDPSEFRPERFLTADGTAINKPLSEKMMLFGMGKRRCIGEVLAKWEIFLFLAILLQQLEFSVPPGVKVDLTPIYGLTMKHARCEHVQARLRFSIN

Cytochrome P450 2C8 = molecular target: T2, Cytochrome P450 2C8 (Homo sapiens, UniProt P10632); test: Inhibition of human CYP2C8 preincubated for 5 mins followed by NADPH addition measured after 5 to 30 mins by LC-MS analysis; format: ADME
T2 sequence (P10632 whole entry): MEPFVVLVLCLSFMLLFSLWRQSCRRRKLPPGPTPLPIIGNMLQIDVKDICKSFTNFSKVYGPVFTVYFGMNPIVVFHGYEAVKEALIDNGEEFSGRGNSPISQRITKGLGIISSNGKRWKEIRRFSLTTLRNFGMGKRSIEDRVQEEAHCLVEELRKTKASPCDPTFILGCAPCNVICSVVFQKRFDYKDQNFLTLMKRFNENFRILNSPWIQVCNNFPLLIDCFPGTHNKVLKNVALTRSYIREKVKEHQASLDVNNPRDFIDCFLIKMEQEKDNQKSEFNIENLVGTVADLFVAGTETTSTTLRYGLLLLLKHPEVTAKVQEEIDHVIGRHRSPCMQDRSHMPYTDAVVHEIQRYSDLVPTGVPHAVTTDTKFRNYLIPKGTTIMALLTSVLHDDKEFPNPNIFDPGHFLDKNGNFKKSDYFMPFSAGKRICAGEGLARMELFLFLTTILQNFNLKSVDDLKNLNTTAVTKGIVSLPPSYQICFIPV

Cytochrome P450 2C19 = Cytochrome P450 2C19 (Homo sapiens, UniProt P33261); test: Inhibition of human CYP2C19 preincubated for 5 mins followed by NADPH addition measured after 5 to 30 mins by LC-MS analysis; format: ADME
Cytochrome P450 2C19, sequence (P33261 whole entry): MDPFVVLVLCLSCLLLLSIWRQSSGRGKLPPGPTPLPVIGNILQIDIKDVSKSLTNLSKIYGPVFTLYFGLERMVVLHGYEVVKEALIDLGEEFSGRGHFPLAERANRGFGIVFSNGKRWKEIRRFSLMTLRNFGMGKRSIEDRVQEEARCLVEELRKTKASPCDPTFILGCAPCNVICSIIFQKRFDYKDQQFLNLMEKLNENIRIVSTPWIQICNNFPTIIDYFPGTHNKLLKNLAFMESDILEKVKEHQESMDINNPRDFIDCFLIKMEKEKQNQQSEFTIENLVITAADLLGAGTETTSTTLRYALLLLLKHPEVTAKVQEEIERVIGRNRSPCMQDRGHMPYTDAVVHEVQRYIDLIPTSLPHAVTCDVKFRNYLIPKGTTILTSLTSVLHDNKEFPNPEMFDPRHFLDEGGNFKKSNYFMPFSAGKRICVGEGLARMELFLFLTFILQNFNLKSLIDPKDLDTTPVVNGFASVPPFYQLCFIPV

Q: For `COc1cc(N[C@H](C(=O)c2c[nH]c3ccc(OC(F)(F)F)cc23)c2ccc(Cl)cc2OC)cc(S(C)(=O)=O)c1` [MOSNODENVIR], which EC50 (dengue virus type 1) is on record?
A: 0.2 nM

Q: What about the EC50 (dengue virus type 2) of the same compound?
A: 0.057 nM

Q: And the hepatocyte CLint [1]?
A: < 1.9 µL/min/1e6 cells

Q: What about the clearance [2] of the same compound?
A: 4.9 mL/min/kg

Q: And the Vd [3]?
A: 4.6 L/kg

Q: What about the half-life [4] of the same compound?
A: 12.4 h

Q: And the AUC [5]?
A: 15400 ng·h/mL

Q: What about the “Chromatographic log D at pH 7.4” value [6] of the same compound?
A: 3.94

Q: What about the bioavailability [7] of the same compound?
A: 108%

Q: And the half-life [8]?
A: 7.3 h

Q: What about the Cmax [9] of the same compound?
A: 362 ng/mL

Q: What about the bioavailability [10] of the same compound?
A: 51%

Q: And the clearance [11]?
A: 2.45 mL/min/kg

Q: And the LBF [12]?
A: 5%

Q: What about the AUC at 24 h [13] of the same compound?
A: 8970 ng·h/mL

Q: And the logD [14]?
A: > 4.1

Q: And the fraction unbound at 24 h, 5 µM [15]?
A: 0.0014

Q: And the Activity [16]?
A: Non-Toxic

Q: And the Papp A→B at 2 h, 1 µM (mouse P-gp [17])?
A: 1 ×10⁻⁶ cm/s

Q: What about the efflux ratio at 2 h, 1 µM (mouse P-gp [18]) of the same compound?
A: ~4

Q: And the Activity [19]?
A: Non-Toxic

Q: What about the Activity [20] of the same compound?
A: Non-Toxic

Q: And the Activity [21]?
A: Non-Toxic

Q: And the Activity [22]?
A: Non-Toxic

Q: And the CC50 [23]?
A: 2600 nM

Q: And the IC50 (Cytochrome P450 1A2)?
A: > 30000 nM

Q: And the IC50 (Cytochrome P450 2C8)?
A: 7400 nM

Q: And the IC50 (Cytochrome P450 2C19)?
A: 10300 nM
